Patent US6156774A, “Beta-thiopropionyl-amino acid derivatives and their use as beta-lactamase inhibitors” (SmithKline Beecham P.L.C., priority 1996, dated 2000)

biological target: B. fragilis CfiA metallo-β-lactamase (Bacteroides fragilis, UniProt P25910); test: I50 screen, nitrocefin reporter substrate; format: biochemical; details: 25 mM PIPES pH 7, 37° C., nitrocefin 91 μM, 5 minute preincubation, Zn2+ 100 μM; read-out: I50 against B. fragilis CfiA metallo-β-lactamase
Description: The inhibitory activity of the compounds of the invention was measured in 25 mM PIPES pH 7 buffer at 10 concentrations (1000, 333, 111, 37, 12.3, 4.1, 1.4, 0.46, 0.15 and 0.05 μM) at 37° C. using nitrocefin (91 μM final concentration) as the reporter substrate. The assays were performed with a 5 minute preincubation of enzyme and inhibitor and were conducted in the presence of added zinc sulphate (Zn^2+ 100 μM, final concentration). the methodology is described in detail in the following references: Payne et al (1991), J. Antimicrob. Chemother., 28:255; Payne et al (1994), Antimicrob. Agents and Chemother., 38:767.

B. fragilis CfiA metallo-β-lactamase, sequence (P25910 19-249): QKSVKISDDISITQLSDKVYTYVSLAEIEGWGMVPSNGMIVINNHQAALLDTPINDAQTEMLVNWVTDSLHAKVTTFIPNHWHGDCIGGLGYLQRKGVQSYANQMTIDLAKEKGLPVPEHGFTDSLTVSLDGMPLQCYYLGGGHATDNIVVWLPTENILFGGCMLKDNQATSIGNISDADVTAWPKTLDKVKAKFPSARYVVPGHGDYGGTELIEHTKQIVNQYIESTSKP

Compound | IC50 [nM]
O=C(N[C@@H](C(=O)O)c1ccc(OCc2ccccc2)cc1)C(CS)CCc1ccccc1 (single isomer, unassigned) [Example 19, N-(2'-mercaptomethyl-4'-phenylbutanoyl)-p-benzyloxy-D-phenylglycine] | < 1000
O=C(NC(C(=O)O)c1cccc(Oc2ccccc2)c1)C(CS)CCc1ccccc1 (single isomer, unassigned) [Example 4, N-(2'-mercaptomethyl-4'-phenylbutanoyl)-m-phenoxy-phenylglycine] | < 1000
O=C(N[C@@H](C(=O)O)c1ccc(OCc2cccs2)cc1)C(CS)CCc1ccccc1 (single isomer, unassigned) [Example 21, N-(2'-mercaptomethyl-4'-phenylbutanoyl)-p-(2"-thienylmethoxy)-D-phenylglycine] | < 1000
CN(C)c1ccc(COc2ccc([C@@H](NC(=O)C(CS)CCc3ccccc3)C(=O)O)cc2)cc1 (single isomer, unassigned) [Example 48, N-(2'-mercaptomethyl-4'-phenylbutanoyl)-p-(p-dimethylamino)-benzyloxy-D-phenylglycine] | < 1000
O=C(O)c1cccc(COc2ccc([C@@H](NC(=O)C(CS)CCc3ccccc3)C(=O)O)cc2)c1 (single isomer, unassigned) [Example 50, N-(2'-mercaptomethyl-4'-phenylbutanoyl)-p-(m-carboxy)-benzyloxy-D-phenylglycine] | < 1000
O=C(NC(C(=O)O)c1cccc(Oc2ccccc2)c1)C(CS)CCc1ccccc1 (single isomer, unassigned) [Example 3, N-(2'-mercaptomethyl-4'-phenylbutanoyl)-m-phenoxy-phenylglycine] | < 1000
O=C(N[C@@H](C(=O)O)c1ccc(OCc2ccc([N+](=O)[O-])cc2)cc1)C(CS)CCc1ccccc1 (single isomer, unassigned) [Example 53, N-(2'-mercaptomethyl-4'-phenylbutanoyl)-p-(p-nitro)-benzyloxy-D-phenylglycine] | < 1000
O=C(NC(C(=O)O)c1ccc(Cc2ccccc2)s1)C(CS)CCc1ccccc1 (racemic) [34 (more polar isomer), 2-[(5-Benzyl)thien-2-yl]-N-[2-(mercaptomethyl)-4-phenylbutyryl]glycine] | < 1000

The next lines start with the values.

IC50 [nM] | Compound
< 1000 | O=C(N[C@@H](C(=O)O)c1ccc(OCc2ccccn2)cc1)C(CS)CCc1ccccc1 (stereo partly drawn) [Example 56, N-(2'-RS-mercaptomethyl-4'-phenylbutanoyl)-p-(2-pyridylmethoxy)-D-phenylglycine]
< 1000 | O=C(N[C@@H](C(=O)O)c1ccc(OCc2ccncc2)cc1)C(CS)CCc1ccccc1 (stereo partly drawn) [Example 55, N-(2'-RS-mercaptomethyl-4'-phenylbutanoyl)-p-(4-pyridylmethoxy)-D-phenylglycine]
< 1000 | O=C(N[C@@H](C(=O)O)c1ccc(OCc2ccc(OCc3ccccc3)cc2)cc1)C(CS)CCc1ccccc1 (single isomer, unassigned) [Example 69, N-(2'-mercaptomethyl-4'-phenylbutanoyl)-p-(p-benzyloxy)-benzyloxy-D-phenylglycine]
< 1000 | C[n+]1cccc(COc2ccc([C@@H](NC(=O)C(CS)CCc3ccccc3)C(=O)[O-])cc2)c1 (stereo partly drawn) [Example 67, N-(2'-RS-mercaptomethyl-4'-phenylbutanoyl)-p-(N-methyl-3-pyridiniummethoxy)-D-phenylglycine]
< 1000 | CN(C)c1ccc(CCOc2ccc([C@@H](NC(=O)C(CS)CCc3ccccc3)C(=O)O)cc2)cc1 (single isomer, unassigned) [Example 66, N-(2'-mercaptomethyl-4'-phenylbutanoyl)-p-(p-dimethylamino)-phenethyloxy-D-phenylglycine]

tested on: Bacteroides fragillis 262 strain, which produces CfiA metallo-β-lactamase; test: Antibacterial activity (MIC) in combination with meropenem; format: cell-based; details: read-out: MIC of compound alone
Source text: Antibacterial activity of compounds of the invention in combination with the carbapenem antibiotic, meropenem, against the Bacteroides fragillis 262 strain, which produces CfiA metallo-β-lactamase:
[MIC=minimum inhibitory concentration (μg/ml)]

Compound | MIC [µg/mL]
O=C(NC(C(=O)O)c1cccc(Oc2ccccc2)c1)C(CS)CCc1ccccc1 (single isomer, unassigned) [Example 4, N-(2'-mercaptomethyl-4'-phenylbutanoyl)-m-phenoxy-phenylglycine] | > 256
O=C(NC(C(=O)O)c1ccc(CC2CCOC2)s1)C(CS)CCc1ccccc1 (centres unmarked) [Example 26, 2-[5-(Tetrahydrofuran-3-ylmethyl)thien-2-yl]-N-[2-(mercaptomethyl)-4-phenylbutyryl]glycine] | > 256
O=C(NC(C(=O)O)c1ccc(Cc2ccccc2)s1)C(CS)CCc1ccccc1 (centres unmarked) [Example 24, 2-[(5-Benzyl)thien-2-yl]-N-[2-(mercaptomethyl)-4-phenylbutyryl]glycine] | > 256

same assay, conditions: read-out: MIC of meropenem alone

Compound | MIC [µg/mL]
C[C@@H](O)[C@H]1C(=O)N2C(C(=O)O)=C(S[C@@H]3CN[C@H](C(=O)N(C)C)C3)[C@H](C)[C@H]12 [meropenem, reference compound] | > 128
